Results: patent US20240398781A1, “SPIROCYCLIC CYCLIC MODULATORS OF CHOLESTEROL BIOSYNTHESIS AND THEIR USE FOR PROMOTING REMYELINATION” (GENENTECH, INC., priority 2021, published 2024)

Key:
[1] = biological target: human emopamil binding protein and human 7-dehydrocholesterol reductase co-expressing cells (hEBP-DHCR7 membrane) (Homo sapiens (Human), UniProt Q15125); assay: Radioligand filter binding assay on hEBP-DHCR7 membrane; details: [3H]-(S)-6-(2-Methyl-3-(6-(trifluoromethyl)pyridin-3-yl)propyl)-2-thia-6-azaspiro[3.4]octane 2,2-dioxide radioligand, HEK293 membrane co-expressing hEBP and hDHCR7
human emopamil binding protein and human 7-dehydrocholesterol reductase co-expressing cells (hEBP-DHCR7 membrane), sequence (Q15125 whole entry): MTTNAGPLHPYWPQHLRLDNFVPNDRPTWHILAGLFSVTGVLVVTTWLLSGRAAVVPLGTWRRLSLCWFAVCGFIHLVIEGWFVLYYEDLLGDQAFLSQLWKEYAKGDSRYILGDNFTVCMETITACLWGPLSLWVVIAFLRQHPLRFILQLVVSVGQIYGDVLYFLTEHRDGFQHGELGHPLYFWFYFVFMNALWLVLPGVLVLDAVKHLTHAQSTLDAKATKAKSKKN
Description: Membrane Preparation: human emopamil binding protein and human 7-dehydrocholesterol reductase co-expressing cells were generated by transient transfecting host human embryonic kidney (HEK) 293 cells with 2 DNA constructs containing each protein's coding sequence. Cells were suspension cultured at 37° C. with 5% CO2 in […] 293 Expression Medium (Thermofisher). Whole cell membrane was prepared by harvesting the cell pellet, adding cold membrane buffer (50 mM Tris, pH7.5, lx Roche COMPLETE EDTA-free protease inhibitor cocktail) 10 times volume of the cell pellets weight, lysing cell pellet on ice by using Dounce homogenizer, spinning at 200 g 4° C. for 15 min, collecting supernatant and spinning again at 25000 g 4° C. for 50 min, transferring pellet to Dounce homogenizer, re-suspending pellet by homogenizing in membrane buffer on ice to reach ˜25 mg/mL, then keeping whole cell membrane aliquots at −80° C.
Compounds were prepared in a 96-well U bottom plate using an Echo550 machine and 10 mM compound DMSO stock solution, followed by an 8-dose 5-fold serial dilutions protocol with final testing compound concentration ranging from 0.06 to 5000 nM, with DMSO back fill to 100 nL/well and n=2. […] The UniFilter-96 GF/B plates were pre-treated by adding 50 μl/well of 0.3% (v/v) PEI to UniFilter-96 GF/B plates. The plates were sealed and incubated at 4° C. for 3 hrs. Then, the plates were washed with ice-cold assay buffer 3 times. The radioligand binding assay was prepared by adding assay buffer diluted hEBP-DHCR7 membrane at 66.7 μg/ml×150 μl/well into the 96-well compound plate to reach 10 μg membrane per well. Then, the assay buffer diluted [3H]—(S)-6-(2-Methyl-3-(6-(trifluoromethyl)pyridin-3-yl)propyl)-2-thia-6-azaspiro[3.4] octane 2,2-dioxide was added at 25 nM×50 μl/well. Following this, the plate was centrifuged at 1000 rpm for 30 secs. The plate was then sealed and agitated at 600 rpm at 22° C. for 5 min, and then incubated at 22° C. for 3 hrs. The incubation was stopped by transferring the binding solution to the pre-treated UniFilter-96 GF/B plate, vacuum filtrated, and then washed four times with ice-cold assay buffer. Following this, the plates were dried at 37° C. for 45 min. The plates were then sealed at the bottom. 40 μl/well of scintillation cocktail was added to the plates. A MicroBeta2 microplate counter was then used to read the plate and analyze the data. For reference and test compounds, the results are expressed as % Inhibition, using the normalization equation: N=100−100×(U−C2)/(C1−C2), where U is the unknown value, C1 is the average of high controls, and C2 is the average value of low controls. The IC50 was determined by fitting percentage of inhibition as a function of compound concentrations with Hill equation using XLfit. Results are expressed as hEBP-DHCR7 Ki (uM) in Table 4. Ki was calculated as described above. The asterix (*) indicates an isolated isomer or isolated group of isomers, but that the stereochemistry has not been assigned.

[2] = system: EBP (zymostenol accumulation in EpiSC-derived OPCs); assay: GC/MS-based sterol profiling, zymostenol accumulation in OPCs; assay type: cell-based, mouse; details: Mus musculus, 24 h, EpiSC-derived OPCs, 24 hr treatment, 8 doses from 0.15 nM to 333 nM; read-out: Zymostenol GCMS EC50
Description: To assess effects of treatments on OPCs, all treatments were assayed in two or more independent platings of epiblast stem cell-derived OPCs ([…]-derived OPCs were obtained using in vitro differentiation protocols and culture conditions described previously (Najm et al, 2011, Nature Methods). OPCs were expanded and frozen down in aliquots. OPCs were thawed into growth conditions for at least one passage before use in further assays. Sterols were monitored using a modified Folch wash protocol (Hubler et al, 2018, Nature). EpiSC-derived OPCs were plated at 100,000 cells per well in PO- and laminin-coated 96-well plates in N2B27 media without growth factors. After 24 hours, cells were rinsed with saline and plates were frozen. Cholesterol-d7 standard was then added to each well before drying under nitrogen stream and derivatization with 55 μl of bis(trimethylsilyl) trifluoroacetamide. After derivatization, 2 μl were analyzed by gas chromatography/mass spectrometry using an Agilent 5973 Network Mass Selective Detector equipped with a 6890 gas chromatograph system and a HP-5MS capillary column (30 m×0.25 mm×0.25 mm). Samples were analyzed in full scan mode using electron impact ionization; ion fragment peaks were integrated to calculate sterol abundance, and quantitation was relative to cholesterol-d7. […] All standards were obtained from Avanti Polar Lipids unless otherwise indicated. Calibration curves were generated by injecting varying concentrations of sterol standards and maintaining a fixed amount of cholesterol-D7. For normalized zymostenol accumulation results, the total amount of zymostenol measured after drug treatment was divided by the total amount of zymostenol accumulated after 24 hr treatment with 100 nM positive control reference.

[3] = system: EpiSC-derived OPCs; assay: In vitro phenotypic screening of OPCs (MBP staining, high-content imaging); assay type: cell-based, mouse; details: Mus musculus, 72 h, percentage of MBP+ oligodendrocytes, 3 days, 0.5 nM to 1000 nM; read-out: OPC EC50
Description: To assess effects of treatments on OPCs, all treatments were assayed in two or more independent platings of epiblast stem cell-derived OPCs (EpiSC). EpiSC-derived OPCs were obtained using in vitro differentiation protocols and culture conditions described previously (Najm et al, 2011, Nature Methods). OPCs were expanded and frozen down in aliquots. OPCs were thawed into growth conditions for at least one passage before use in further assays.
EpiSC-derived OPCs were grown and expanded in poly-L-ornithine (PO) and laminin-coated flasks in N2B27 media (DMEM/F12 (Gibco), N2-MAX (R&D Systems), B-27 (ThermoFisher), and GlutaMax (Gibco)) supplemented with FGF2 ([…], R&D systems, 233-FB-025) and PDGF-AA ([…], R&D systems, 233-AA-050) before harvesting for experiments. The cells were seeded onto poly-L-ornithine or poly-D-lysine coated CellCarrier Ultra plates (PerkinElmer) coated with laminin (Sigma, L2020) at a density of 150,000/cm^2 in N2B27 media without growth factors. For dose-response testing, a 1000× compound stock in dimethyl sulphoxide (DMSO) was added to assay plates, resulting in 8-point dose curves with final concentrations between 1000 nM and 0.5 nM. Positive controls and DMSO vehicle controls were included in each assay plate. Cells were incubated under standard conditions (37° C., 5% CO2) for 3 days and fixed with 4% paraformaldehyde (PFA) in phosphate buffered saline (PBS) for 20 min. Fixed plates were washed with PBS, permeabilized with 0.1% Triton X-100, and blocked with 10% donkey serum (v/v) in PBS for 40 min. Then, cells were labelled with MBP antibodies (Abcam, ab7349; 1:200) for 2 h at room temperature, washed with PBS, and stained with Alexa Fluor conjugated secondary antibodies (1:500) for 45 min. Nuclei were visualized by DAPI staining (Sigma; 1 μg/ml), followed by further PBS washes.
Cells and cell culture plates were imaged on the Operetta High Content Imaging and Analysis system (PerkinElmer). Analysis (PerkinElmer Harmony and Columbus software) began by identifying intact nuclei stained by DAPI. The peri-nuclear region of each cell was then cross-referenced with the mature myelin protein (MBP) stain to identify oligodendrocyte nuclei, and from this the percentage of oligodendrocytes was calculated. EC50 values were calculated using The Levenberg-Marquardt algorithm to fit a Hill equation to dose-response data (0.5 nM to 1000 nM).

Ki [1]	EC50 [2]	EC50 [3]	Structure (SMILES)
	0.0099 µM	0.015 µM	O=S1(=O)CC2(CCN([C@H]3CC[C@H](c4ccc(C(F)(F)F)cn4)CC3)C2)C1 [Compound 49, 6-((1r,4r)-4-(5-(Trifluoromethyl)pyridin-2-yl)cyclohexyl)-2-thia-6-azaspiro[3.4]octane 2,2-dioxide]
	0.026 µM	0.029 µM	O=S1(=O)CC2(CCN([C@H]3CC[C@H](c4ccc(C(F)(F)F)cn4)CC3)CC2)C1 [Compound 50A, 7-((1r,4r)-4-(5-(Trifluoromethyl)pyridin-2-yl)cyclohexyl)-2-thia-7-azaspiro[3.5]nonane 2,2-dioxide]
	0.032 µM	0.045 µM	O=S1(=O)CC2(CCN([C@H]3CC[C@@H](c4ccc(C(F)(F)F)cn4)CC3)CC2)C1 [Compound 50B, 7-((1s,4s)-4-(5-(trifluoromethyl)pyridin-2-yl)cyclohexyl)-2-thia-7-azaspiro[3.5]nonane 2,2-dioxide]
	0.0094 µM	0.018 µM	O=S1(=O)CC2(CCN([C@H]3CC[C@H](c4cnc(C(F)(F)F)c(F)c4)CC3)C2)C1 [Compound 72A, 6-((1r,4r)-4-(5-fluoro-6-(trifluoromethyl)pyridin-3-yl)cyclohexyl)-2-thia-6-azaspiro[3.4]octane 2,2-dioxide]
	0.031 µM	0.24 µM	O=S1(=O)CC2(CCN([C@H]3CC[C@@H](c4ccnc(C(F)(F)F)c4)CC3)CC2)C1 [Compound 90A, 7-((1s,4s)-4-(2-(Trifluoromethyl)pyridin-4-yl)cyclohexyl)-2-thia-7-azaspiro[3.5]nonane 2,2-dioxide]
	0.071 µM	0.11 µM	O=S1(=O)CC2(CCN([C@H]3CC[C@@H](c4ccc(C(F)(F)F)cn4)CC3)C2)C1 [Compound 96, 6-((1s,4s)-4-(5-(Trifluoromethyl)pyridin-2-yl)cyclohexyl)-2-thia-6-azaspiro[3.4]octane 2,2-dioxide]

The remaining lines, values behind:

Structure (SMILES)	Ki [1]	EC50 [2]	EC50 [3]
O=S1(=O)CC2(CCN([C@H]3CC[C@@H](c4nc(-c5cccc(C(F)(F)F)n5)nn4C4CC4)C3)CC2)C1 (single isomer, unassigned) [42A*]	0.57 µM	0.043 µM	0.093 µM
O=S1(=O)CC2(CCN([C@@H]3CC[C@@H](c4nc(-c5cccc(C(F)(F)F)n5)nn4C4CC4)C3)CC2)C1 (single isomer, unassigned) [42B*]	0.39 µM	0.058 µM	0.18 µM
CC(C)n1nc(-c2cccc(C(F)(F)F)n2)cc1[C@@H]1CC[C@@H](N2CCC3(CC2)CS(=O)(=O)C3)C1 (single isomer, unassigned) [46A*]	0.031 µM	0.0013 µM	0.0025 µM
CC(C)n1nc(-c2cccc(C(F)(F)F)n2)cc1[C@@H]1CC[C@H](N2CCC3(CC2)CS(=O)(=O)C3)C1 (single isomer, unassigned) [46B*]	0.035 µM	0.0027 µM	0.0049 µM
CC(C)n1nc(-c2cccc(C(F)(F)F)n2)cc1[C@H]1CC[C@@H](N2CCC3(CC2)CS(=O)(=O)C3)C1 (single isomer, unassigned) [46C*]	0.013 µM	0.0017 µM	0.0052 µM
CC(C)n1nc(-c2cccc(C(F)(F)F)n2)cc1[C@H]1CC[C@H](N2CCC3(CC2)CS(=O)(=O)C3)C1 (single isomer, unassigned) [46D*]	0.012 µM	0.0011 µM	0.0024 µM
CC(C)n1nc(-c2ccc(C(F)(F)F)cc2)nc1[C@H]1CC[C@H](N2CCC3(C2)CS(=O)(=O)C3)C1 (single isomer, unassigned) [53A*]	0.012 µM	0.0012 µM	0.0023 µM
CC(C)n1nc(-c2ccc(C(F)(F)F)cc2)nc1[C@H]1CC[C@@H](N2CCC3(C2)CS(=O)(=O)C3)C1 (single isomer, unassigned) [53B*]	0.0099 µM	0.00089 µM	0.0024 µM
CC(C)n1nc(-c2ccc(C(F)(F)F)cc2)nc1[C@@H]1CC[C@@H](N2CCC3(C2)CS(=O)(=O)C3)C1 (single isomer, unassigned) [53D*]	0.096 µM	0.001 µM	0.0033 µM
O=S1(=O)CC2(CCN([C@@H]3CCC[C@@H](c4ccc(C(F)(F)F)nc4)C3)C2)C1 (single isomer, unassigned) [54B*]	0.1 µM	0.24 µM	1 µM
O=S1(=O)CC2(CCN([C@H]3CCC[C@H](c4ccc(C(F)(F)F)nc4)C3)C2)C1 (single isomer, unassigned) [54D*]	0.068 µM	0.013 µM	0.035 µM
O=S1(=O)CC2(CCN([C@@H]3CCCN(c4ccc(C(F)(F)F)cc4)C3)CC2)C1 (single isomer, unassigned) [55A*]	0.0028 µM	0.0023 µM	0.015 µM
O=S1(=O)CC2(CCN([C@H]3CCCN(c4ccc(C(F)(F)F)cc4)C3)CC2)C1 (single isomer, unassigned) [55B*]	0.014 µM	0.025 µM	0.33 µM
CC(C)n1nc(C(F)(F)F)cc1[C@H]1CC[C@@H](N2CCC[C@@]3(CCS(=O)(=O)C3)C2)CC1 (single isomer, unassigned) [91A*]		0.0034 µM	0.0094 µM
